# Entries after “also recorded” stand apart in the source; their conditions may differ. Read-outs that look alike come from different tables or passages of the source.
# Assays:
# Format in all cases: physicochemical
# [1] = Influence of ambient temperature on the water solubility of trehalose (Experiment 1); details: for solubility thermodynamic: water, 5 °C, saturated solution
# Protocol: The water solubility of trehalose at ambient temperature was studied by placing in a glass beaker 10 parts by weight of water and 20 parts by weight of crystalline trehalose hydrate, allowing the solution to stand at 5, 10, 15, 20, 25, 30 or 40° C. while stirring, sampling the solution, filtering the sample, and measuring the trehalose content in the filtrate to determine the solubility of trehalose in 100 g water at each temperature, i.e., the amount (g) of trehalose, d.s.b., that dissolves in 100 g water to give a saturated solution at each temperature.
# [2] = Trehalose crystallization inhibitory effect of coexisting saccharides in a trehalose syrup over the water solubility (Experiment 2); details: trehalose dissolved in an amount over the water solubility; summary of Table 2
# Protocol: Trehalose was dissolved by heating in water in an amount of 1.5-times the water solubility at 10° C., and the trehalose solution was allowed to stand at a relatively-cold place for checking the trehalose crystallization inhibitory effect by saccharides. […] With this relationship, testing solutions were prepared by dissolving by heating in 100 parts by weight of water in a respective glass beaker 83 parts by weight of trehalose, and a saccharide in an amount of 10% to the trehalose, i.e., 8.3 parts by weight of the saccharide selected from the group consisting of glucose, maltose, isomaltose, lactose, maltotriose, panose, maltotetraose, sorbitol, maltitol, maltotriitol, sucrose, raffinose, erlose, saccharides such as α-glucosyltrehalose or monoglucosyltrehalose, α-maltosyltrehalose or diglucosyltrehalose, and α-maltotriosyltrehalose or triglucosyltrehalose as disclosed in Japanese Patent Kokai No.143,876/95 by the present applicant; a saccharide such as α-isomaltosyl-α-glucoside or monoglucosyltrehalose as disclosed in Japanese Patent Kokai No.217,784/96 by the same applicant; and a saccharide such as α-maltosyl-α-maltoside or diglucosyltrehalose as disclosed in Japanese Patent Application No.167,486/94 by the same applicant. Each solution was allowed to stand in a thermostatic place kept at 5, 10 or 15° C. for one week, followed by macroscopically observing the presence of trehalose crystal for evaluating the trehalose crystallization inhibitory effect by the saccharides.
# [3] = Influence of the concentrations of trehalose and of mono-/diglucosyltrehalose on trehalose crystallization (Experiment 3); design: key to Formation of trehalose crystal: "+" means that it crystallized; "-" means that it did not
# Protocol: The trehalose crystallization inhibitory effect was experimented by dissolving trehalose under heating conditions in water in an amount of 1.5, 2.0, 2.5, 2.8 or 3.3-times the water solubility at 10° C., dissolving in the solution other oligosaccharides having a trehalose structure within their molecules in an amount of 10, 30 or 60% to the trehalose, d.s.b, and allowing the resultant solution to stand at a relatively-low temperature.
# Based on the results in Experiment 1, 1.5, 2.0, 2.5, 2.8 and 3.3-times the water solubility of trehalose in 100 parts by weight of water at 10° C. water corresponded to 83, 111, 138, 155 and 182 parts by weight of trehalose anhydride, d.s.b., respectively With this relationship, testing solutions with the composition as shown in Table 3 were prepared by dissolving under heating conditions in a respective glass beaker 100 parts by weight of water, trehalose in a prescribed part by weight, and either monoglucosyltrehalose, i.e., α-glucosyltrehalose or diglucosyltrehalose, i.e., α-maltosyltrehalose in a prescribed ratio, allowing the solution to stand in a thermostatic place kept at 5, 10 or 15° C. for checking the trehalose crystallization inhibitory effect.
compound,measurement,setting,value
"OC[C@H]1O[C@H](O[C@H]2O[C@H](CO)[C@@H](O)[C@H](O)[C@H]2O)[C@H](O)[C@@H](O)[C@@H]1O [Trehalose, α, α-trehalose]",Water solubility (in words),"[1]; ambient temperature, summary of Table 1",relatively-low water solubility
same,solubility thermodynamic,"[1]; d.s.b., read-out: Amount of trehalose (g) dissolving in 100 g water",496 mg/mL
same,solubility thermodynamic,[1]; read-out: Trehalose concentration (%),332 mg/mL
"OC[C@H]1O[C@H](O[C@H]2O[C@H](CO)[C@@H](O[C@H]3O[C@H](CO)[C@@H](O[C@H]4O[C@H](CO)[C@@H](O)[C@H](O)[C@H]4O)[C@H](O)[C@H]3O)[C@H](O)[C@H]2O)[C@H](O)[C@@H](O)[C@@H]1O [α-Maltosyltrehalose, α-maltosyltrehalose]",Trehalose crystallization inhibitory effect (in words),[2],specifically and effectively inhibited
same,"Amount of trehalose, times the water solubility, beyond which crystallization of trehalose was observed",[3]; coexisting diglucosyltrehalose,exceeds 2.8 times the water solubility
same,Trehalose crystallization inhibitory effect (in words),"[3]; summary of Table 3, listed as diglucosyltrehalose",satisfactory trehalose crystallization inhibitory effect; also recorded: stronger effect
same,Formation of trehalose crystal,"[3]; water 100, trehalose 83, coexisting saccharide 8.3 parts by weight, 5° C. (1.7-times solubility)",-
same,Formation of trehalose crystal,"[3]; water 100, trehalose 83, coexisting saccharide 8.3 parts by weight, 10° C. (1.5-times solubility)",-
same,Formation of trehalose crystal,"[3]; water 100, trehalose 83, coexisting saccharide 8.3 parts by weight, 15° C. (1.3-times solubility)",-
same,Formation of trehalose crystal,"[3]; water 100, trehalose 83, coexisting saccharide 25 parts by weight, 5° C. (1.7-times solubility)",-
same,Formation of trehalose crystal,"[3]; water 100, trehalose 83, coexisting saccharide 25 parts by weight, 10° C. (1.5-times solubility)",-
same,Formation of trehalose crystal,"[3]; water 100, trehalose 83, coexisting saccharide 25 parts by weight, 15° C. (1.3-times solubility)",-
same,Formation of trehalose crystal,"[3]; water 100, trehalose 83, coexisting saccharide 50 parts by weight, 5° C. (1.7-times solubility)",-
same,Formation of trehalose crystal,"[3]; water 100, trehalose 83, coexisting saccharide 50 parts by weight, 10° C. (1.5-times solubility)",-
same,Formation of trehalose crystal,"[3]; water 100, trehalose 83, coexisting saccharide 50 parts by weight, 15° C. (1.3-times solubility)",-
same,Formation of trehalose crystal,"[3]; water 100, trehalose 111, coexisting saccharide 11 parts by weight, 5° C. (2.2-times solubility)",-
same,Formation of trehalose crystal,"[3]; water 100, trehalose 111, coexisting saccharide 11 parts by weight, 10° C. (2.0-times solubility)",-
same,Formation of trehalose crystal,"[3]; water 100, trehalose 111, coexisting saccharide 11 parts by weight, 15° C. (1.8-times solubility)",-
same,Formation of trehalose crystal,"[3]; water 100, trehalose 111, coexisting saccharide 33 parts by weight, 5° C. (2.2-times solubility)",-
same,Formation of trehalose crystal,"[3]; water 100, trehalose 111, coexisting saccharide 33 parts by weight, 10° C. (2.0-times solubility)",-
same,Formation of trehalose crystal,"[3]; water 100, trehalose 111, coexisting saccharide 33 parts by weight, 15° C. (1.8-times solubility)",-
same,Formation of trehalose crystal,"[3]; water 100, trehalose 111, coexisting saccharide 66 parts by weight, 5° C. (2.2-times solubility)",-
same,Formation of trehalose crystal,"[3]; water 100, trehalose 111, coexisting saccharide 66 parts by weight, 10° C. (2.0-times solubility)",-
same,Formation of trehalose crystal,"[3]; water 100, trehalose 111, coexisting saccharide 66 parts by weight, 15° C. (1.8-times solubility)",-
same,Formation of trehalose crystal,"[3]; water 100, trehalose 138, coexisting saccharide 14 parts by weight, 5° C. (2.8-times solubility)",+
same,Formation of trehalose crystal,"[3]; water 100, trehalose 138, coexisting saccharide 14 parts by weight, 10° C. (2.5-times solubility)",-
same,Formation of trehalose crystal,"[3]; water 100, trehalose 138, coexisting saccharide 14 parts by weight, 15° C. (2.2-times solubility)",-
same,Formation of trehalose crystal,"[3]; water 100, trehalose 138, coexisting saccharide 42 parts by weight, 5° C. (2.8-times solubility)",+
same,Formation of trehalose crystal,"[3]; water 100, trehalose 138, coexisting saccharide 42 parts by weight, 10° C. (2.5-times solubility)",-
same,Formation of trehalose crystal,"[3]; water 100, trehalose 138, coexisting saccharide 42 parts by weight, 15° C. (2.2-times solubility)",-
same,Formation of trehalose crystal,"[3]; water 100, trehalose 138, coexisting saccharide 83 parts by weight, 5° C. (2.8-times solubility)",-
same,Formation of trehalose crystal,"[3]; water 100, trehalose 138, coexisting saccharide 83 parts by weight, 10° C. (2.5-times solubility)",-
same,Formation of trehalose crystal,"[3]; water 100, trehalose 138, coexisting saccharide 83 parts by weight, 15° C. (2.2-times solubility)",-
same,Formation of trehalose crystal,"[3]; water 100, trehalose 155, coexisting saccharide 16 parts by weight, 5° C. (3.1-times solubility)",+
same,Formation of trehalose crystal,"[3]; water 100, trehalose 155, coexisting saccharide 16 parts by weight, 10° C. (2.8-times solubility)",+
same,Formation of trehalose crystal,"[3]; water 100, trehalose 155, coexisting saccharide 16 parts by weight, 15° C. (2.5-times solubility)",-
same,Formation of trehalose crystal,"[3]; water 100, trehalose 155, coexisting saccharide 46 parts by weight, 5° C. (3.1-times solubility)",+
same,Formation of trehalose crystal,"[3]; water 100, trehalose 155, coexisting saccharide 46 parts by weight, 10° C. (2.8-times solubility)",+
same,Formation of trehalose crystal,"[3]; water 100, trehalose 155, coexisting saccharide 46 parts by weight, 15° C. (2.5-times solubility)",-
same,Formation of trehalose crystal,"[3]; water 100, trehalose 155, coexisting saccharide 93 parts by weight, 5° C. (3.1-times solubility)",+
same,Formation of trehalose crystal,"[3]; water 100, trehalose 155, coexisting saccharide 93 parts by weight, 10° C. (2.8-times solubility)",-
same,Formation of trehalose crystal,"[3]; water 100, trehalose 155, coexisting saccharide 93 parts by weight, 15° C. (2.5-times solubility)",-
same,Formation of trehalose crystal,"[3]; water 100, trehalose 182, coexisting saccharide 18 parts by weight, 5° C. (3.7-times solubility)",+
same,Formation of trehalose crystal,"[3]; water 100, trehalose 182, coexisting saccharide 18 parts by weight, 10° C. (3.3-times solubility)",+
same,Formation of trehalose crystal,"[3]; water 100, trehalose 182, coexisting saccharide 18 parts by weight, 15° C. (3.0-times solubility)",+
same,Formation of trehalose crystal,"[3]; water 100, trehalose 182, coexisting saccharide 55 parts by weight, 5° C. (3.7-times solubility)",+
same,Formation of trehalose crystal,"[3]; water 100, trehalose 182, coexisting saccharide 55 parts by weight, 10° C. (3.3-times solubility)",+
same,Formation of trehalose crystal,"[3]; water 100, trehalose 182, coexisting saccharide 55 parts by weight, 15° C. (3.0-times solubility)",+
same,Formation of trehalose crystal,"[3]; water 100, trehalose 182, coexisting saccharide 110 parts by weight, 5° C. (3.7-times solubility)",+
same,Formation of trehalose crystal,"[3]; water 100, trehalose 182, coexisting saccharide 110 parts by weight, 10° C. (3.3-times solubility)",+
same,Formation of trehalose crystal,"[3]; water 100, trehalose 182, coexisting saccharide 110 parts by weight, 15° C. (3.0-times solubility)",+

# Source: patent US5916881A, “High trehalose content syrup” (Kabushiki Kaisha Hayashibara Seibutsu Kagaku Kenkyujo, priority 1996, dated 1999)
